This is an account of results in US20260234144A1 (TAY THERAPEUTICS LIMITED, priority 2023, published 2026).

This assay deals with R223X stop codon in the mutated luciferase gene, ADXC8 luciferase reporter cell line. Description: cells. The following applies: for Emax / EC (100% of 200 uM G418 response): 24 h; for Emax: read-out: Fold Over Control, maximum fold response relative to 200 μM G418; for Emax / EC (100% of 200 uM G418 response) / Fold Over Control / pC100%: ADXC8 cells, 24 hours; for EC (100% of 200 uM G418 response): read-out: pC100%, negative logarithm of the concentration giving the same response as 200 μM G418; for Fold Over Control: maximum fold response relative to 200 μM G418; for pC100%: negative logarithm of the concentration giving the same response as 200 μM G418. It is filed as cell-based.

As to `CNc1nc(N[C@@H]2CCCN(C)CC2)nc2nc(C)cc(C)c12` [Example 401], the Emax lay in the range of 100 to 3000% and the EC (100% of 200 uM G418 response) lay within 1 to 10 µM.

Take `CNc1nc(NC2(CO)CCNC2)nc2nc(C)cc(C)c12` (single isomer, unassigned) [Example 441]: the “Fold Over Control” value is “## (Fold over Ctrl > 1 ≤ 30)” and the pC100% entry is “++ (pC100% > 5.0 ≤ 6.0)”.

As for `Cc1cc(C)c2c(N)nc(NC3CCN(Cc4ccccc4)CC3(F)F)nc2n1` (centres unmarked) [Example 639], the Emax lay within 0 to 100% and the EC (100% of 200 uM G418 response) is over 31.6 µM.

As to `Cc1cc(C)c2c(N)nc(NC3CCN(Cc4cocn4)CC3)nc2n1` [Example 472], the Emax lay within 100 to 3000% and the EC (100% of 200 uM G418 response) was 1 to 10 µM.

`CNc1nc(N[C@H]2CNC[C@H]2F)nc2nc(C)cc(C)c12` [Example 335]: the Emax is 100 to 3000% and the EC (100% of 200 uM G418 response) is 1 to 10 µM.

`Cc1nc2nc(NC3CCN(C)CC3)nc(N)c2c(C)c1Cl` [Example 130, 6-chloro-5,7-dimethyl-N^2-(1-methylpiperidin-4-yl)pyrido[2,3-d]pyrimidine-2,4-diamine]: the Emax lay in the range of 100 to 3000% and the EC (100% of 200 uM G418 response) is 1 to 10 µM.

For `Cc1c2c(nc3nc(NC4CCN(Cc5ccccc5C(=O)O)CC4)nc(N)c13)CCC2` [Example 675], the Emax was 0 to 100% and the EC (100% of 200 uM G418 response) is over 31.6 µM.

With `Cc1cc(C)c2c(N)nc(NC[C@@H]3CNCCO3)nc2n1` [Example 176], the Emax fell in the range of 100 to 3000% and the EC (100% of 200 uM G418 response) was in the range of 1 to 10 µM.

For `Cc1cc(C)c2c(N)nc(NC3CCN(Cc4cccc(C#N)c4)CC3)nc2n1` [Example 499], the Emax lay in the range of 100 to 3000% and the EC (100% of 200 uM G418 response) was 1 to 10 µM.

Take `CN1CCC(Nc2nc(N)c3ccc(-c4cncnc4)nc3n2)CC1` [Example 98]: the Emax lay within 0 to 100% and the EC (100% of 200 uM G418 response) was over 100 µM.

Consider `CNc1nc(N[C@H]2CN(C)CC[C@H]2O)nc2nc(C)cc(C)c12` [Example 607], for which the EC (100% of 200 uM G418 response) was 1 to 10 µM.

As for `COCCN1CCC(Nc2nc(N)c3c(C)cc(C)nc3n2)CC1` [Example 172], the Emax was in the range of 100 to 3000% and the EC (100% of 200 uM G418 response) lay in the range of 10 to 100 µM.

Take `CNc1nc(N[C@H]2CN(C)C[C@@H]2F)nc2nc(C)c3c(c12)CCC3` [Example 365]: the Emax was 100 to 3000% and the EC (100% of 200 uM G418 response) lay within 0.1 to 1 µM.

Consider `CN1CCC(Nc2nc(N)c3c(O)ccnc3n2)CC1` [Example 244, 4-amino-2-((1-methylpiperidin-4-yl)amino)pyrido[2,3-d]pyrimidin-5-ol], for which the Emax was in the range of 0 to 100% and the EC (100% of 200 uM G418 response) is over 100 µM.

On to `Cc1cc(C)c2c(NCCN)nc(NC3CCN(C)CC3)nc2n1` [Example 315], for which the Emax lay in the range of 0 to 100% and the EC (100% of 200 uM G418 response) is over 31.6 µM.

In the case of `CNC(=O)c1cccc(-c2ccc3c(N)nc(NC4CCN(C)CC4)nc3n2)c1` [Example 80], the Emax lay in the range of 100 to 3000% and the EC (100% of 200 uM G418 response) lay within 10 to 100 µM.

As for `CC(O)c1ccnc2nc(NC3CCN(C)CC3)nc(N)c12` (centres unmarked) [Example 308], the Emax was 0 to 100% and the EC (100% of 200 uM G418 response) was over 100 µM.

Regarding `CC(=O)Nc1cccc(-c2ccc3c(N)nc(NC4CCN(C)CC4)nc3n2)c1` [Example 64], the Emax lay within 0 to 100% and the EC (100% of 200 uM G418 response) is over 100 µM.

With `Cc1cc(C)c2c(N)nc(NC3CC4CCC[C@H](C3)N4)nc2n1` (some centres unmarked) [Example 196], the Emax fell in the range of 100 to 3000% and the EC (100% of 200 uM G418 response) is 1 to 10 µM.

Regarding `CN1CCC(Nc2nc(N)c3ccc(C(=O)O)nc3n2)CC1` [Example 236, 4-amino-2-((1-methylpiperidin-4-yl)amino)pyrido[2,3-d]pyrimidine-7-carboxylic acid], the Emax lay within 0 to 100% and the EC (100% of 200 uM G418 response) is over 100 µM.

Take `CN1CCC(Nc2nc(N)c3ccc(-c4cccnc4)nc3n2)CC1` [Example 25, N^2-(1-methylpiperidin-4-yl)-7-(pyridin-3-yl)pyrido[2,3-d]pyrimidine-2,4-diamine]: the Emax lay within 100 to 3000% and the EC (100% of 200 uM G418 response) fell in the range of 10 to 100 µM.

For `Cc1cc(C)c2c(NCc3cccnc3)nc(NC3CCN(C)CC3)nc2n1` [Example 318], the Emax was in the range of 0 to 100% and the EC (100% of 200 uM G418 response) is over 31.6 µM.

Consider `CC(C)Oc1ccc2c(N)nc(NC3CCN(C)CC3)nc2n1` [Example 38, 7-isopropoxy-N^2-(1-methylpiperidin-4-yl)pyrido[2,3-d]pyrimidine-2,4-diamine], for which the Emax lay in the range of 0 to 100% and the EC (100% of 200 uM G418 response) is over 100 µM.

As for `CNc1nc(N[C@H]2C[C@H](C)N(C)C2)nc2nc(C)cc(C)c12` [Example 373], the Emax lay within 100 to 3000% and the EC (100% of 200 uM G418 response) lay in the range of 1 to 10 µM.

Turning to `CNc1nc(N[C@H]2CNC[C@H](O)C2)nc2nc(C)cc(C)c12` [Example 611], the EC (100% of 200 uM G418 response) is 0.1 to 1 µM.

In the case of `CC(CO)c1cnc2nc(NC3CCN(C)CC3)nc(N)c2c1` (centres unmarked) [Example 286], the Emax fell in the range of 0 to 100% and the EC (100% of 200 uM G418 response) is over 100 µM.

As for `CNc1nc(NC2CCN(Cc3ccccc3O)CC2)nc2nc(C)c3c(c12)CCC3` [Example 544], the Emax fell in the range of 100 to 3000% and the EC (100% of 200 uM G418 response) is 0.1 to 1 µM.

Take `CNc1nc(NC2CCN(Cc3ccccc3O)CC2)nc2nc(C)cc(C)c12` [Example 579]: the Emax was in the range of 100 to 3000% and the EC (100% of 200 uM G418 response) lay within 0.1 to 1 µM.

Take `Cc1cccc(-c2cc(C)c3c(N)nc(NCCCN4CCOCC4)nc3n2)c1` [Example 253, 5-methyl-N2-(3-morpholinopropyl)-7-(m-tolyl)pyrido[2,3-d]pyrimidine-2,4-diamine]: the EC (100% of 200 uM G418 response) fell in the range of 1 to 10 µM.

Take `CNc1nc(N[C@@H]2CCNC2)nc2nc(C)c(Cl)c(C)c12` [Example 358]: the Emax was 100 to 3000% and the EC (100% of 200 uM G418 response) fell in the range of 0.1 to 1 µM.

For the compound `Cc1cc(C)c2c(N)nc(NC3CCN(Cc4ccc(CO)cc4)CC3)nc2n1` [Example 481], the Emax fell in the range of 100 to 3000% and the EC (100% of 200 uM G418 response) was 1 to 10 µM.

Turning to `Nc1nc(N)c2nc(-c3ccccc3)c(N)nc2n1` [triamterene, reference compound], the Emax was 0 to 100% and the EC (100% of 200 uM G418 response) was over 100 µM. Besides, the pC100% response entry (assayed at a concentration of 300 μM, C100% = concentration giving the same response as 200 μM G418) was “not reached”.

`CNc1nc(N[C@H]2CN(C)C[C@@H]2OC(C)=O)nc2nc3c(c(C)c12)CCC3` [Example 683, (3S,4S)-1-methyl-4-((5-methyl-4-(methylamino)-7,8-dihydro-6H-cyclopenta[5,6]pyrido[2,3-d]pyrimidin-2-yl)amino)pyrrolidin-3-yl acetate]: the Emax is 100 to 3000% and the EC (100% of 200 uM G418 response) was in the range of 0.1 to 1 µM.

As to `Cc1cc(C)c2c(N)nc(NC[C@@H]3CN(C(=O)OC(C)(C)C)CCO3)nc2n1` [Example 136], the Emax lay in the range of 0 to 100% and the EC (100% of 200 uM G418 response) is over 100 µM.

On to `Cc1cc(C)c2c(N)nc(NC3CCN(Cc4cccc(C)c4O)CC3)nc2n1` [Example 539], for which the Emax is 100 to 3000% and the EC (100% of 200 uM G418 response) lay in the range of 0.1 to 1 µM.

Consider `Cc1cc(C)c2c(N)nc(NCCCN3CC(F)C3)nc2n1` [Example 186], for which the Emax lay in the range of 100 to 3000% and the EC (100% of 200 uM G418 response) is 10 to 100 µM.

In the case of `Cc1c2c(nc3nc(NC4CCN(Cc5ccccc5B(O)O)CC4)nc(N)c13)CCC2` [Example 670], the Emax lay within 100 to 3000% and the EC (100% of 200 uM G418 response) fell in the range of 0.1 to 1 µM.

For the compound `Cc1cc(C)c2c(N)nc(N[C@@H]3CCN(C)C3)nc2n1` [Example 14, (R)-5,7-dimethyl-N^2-(1-methylpyrrolidin-3-yl)pyrido[2,3-d]pyrimidine-2,4-diamine], the Emax is 100 to 3000% and the EC (100% of 200 uM G418 response) is 1 to 10 µM.

For the compound `CC(O)c1cnc2nc(NC3CCN(C)CC3)nc(N)c2c1` (centres unmarked) [Example 126, 1-{4-amino-2-[(1-methylpiperidin-4-yl)amino]pyrido[2,3-d]pyrimidin-6-yl}ethanol], the Emax fell in the range of 0 to 100% and the EC (100% of 200 uM G418 response) is over 100 µM.

`CC(=O)c1ccc2c(N)nc(NC3CCN(C)CC3)nc2n1` [Example 289]: the Emax fell in the range of 100 to 3000% and the EC (100% of 200 uM G418 response) fell in the range of 1 to 10 µM.

Regarding `Cc1ccc(O)c(CN2CCC(Nc3nc(N)c4c(C)cc(C)nc4n3)CC2)c1` [Example 548], the Emax was 100 to 3000% and the EC (100% of 200 uM G418 response) lay within 0.1 to 1 µM.

On to `CNc1nc(NC2(CO)CCNC2)nc2nc(C)cc(C)c12` (single isomer, unassigned) [Example 440], for which the “Fold Over Control” value is given as “# (Fold over Ctrl ≥ 0 ≤ 1)” and the pC100% entry is listed as “* (pC100 ≤ 4.5)”.

`COc1ccc(CCN2CCC(Nc3nc(N)c4c(C)cc(C)nc4n3)CC2)cc1` [Example 201]: the Emax was in the range of 100 to 3000% and the EC (100% of 200 uM G418 response) is 1 to 10 µM.

Take `CC(C)c1ccc2c(N)nc(NC3CCN(C)CC3)nc2n1` [Example 239, 7-isopropyl-N^2-(1-methylpiperidin-4-yl)pyrido[2,3-d]pyrimidine-2,4-diamine]: the Emax fell in the range of 100 to 3000% and the EC (100% of 200 uM G418 response) fell in the range of 1 to 10 µM.

Regarding `Cc1cc(C)c2c(N)nc(NC34CNCC3C4)nc2n1` (single isomer, unassigned) [Example 259, N^2-(3-azabicyclo[3.1.0]hexan-1-yl)-5,7-dimethylpyrido[2,3-d]pyrimidine-2,4-diamine], the Emax was in the range of 100 to 3000% and the pC100% result was “++ (pC100% > 5.0 ≤ 6.0)”.

Regarding `Cc1cc(C)c2c(N)nc(NC3CCN(Cc4nnc[nH]4)CC3)nc2n1` [Example 483], the Emax lay within 0 to 100% and the EC (100% of 200 uM G418 response) was over 31.6 µM.

For `CN1CCC(Nc2nc(N)c3ccc(-c4ccccc4)nc3n2)CC1` [Example 27, N^2-(1-methylpiperidin-4-yl)-7-phenylpyrido[2,3-d]pyrimidine-2,4-diamine], the Emax was in the range of 100 to 3000% and the EC (100% of 200 uM G418 response) lay in the range of 1 to 10 µM.
